Among the data in patent publication US6596687B1, “Cell adhesion inhibitors” (Biogen, Inc., priority 1995, dated 2003) are IC50 values, retold here.

This assay has as its target T1, VLA4 (Homo sapiens, UniProt P05556+P13612).
T1 construct: endogenous in cells; host or cells: Ramos cells
Description: Inhibition of VLA4-dependent adhesion of Ramos cells to BSA-CS1. Format: cell-based. Conditions: Ramos cells, BSA-CS1 coated wells, 2 mM MnCl2, 30 minutes at room temperature; read-out: IC50. An excerpt: For example, the cell adhesion inhibitory activity of these compounds may be measured by determining the concentration of inhibitor required to block the binding of VLA-4-expressing cells to fibronectin- or CS1-coated plates. In this assay microtiter wells are coated with either fibronectin (containing the CS1-sequence) or CS-1. If CS-1 is used, it must be conjugated to a carrier protein, such as bovine serum albumin, in order to bind to the wells. Once the wells are coated, varying concentrations of the test compound are then added together with appropriately labelled, VLA-4-expressing cells. Alternatively, the test compound may be added first and allowed to incubate with the coated wells prior to the addition of the cells. The cells are allowed to incubate in the wells for at least 30 minutes. Following incubation, the wells are emptied and washed. Inhibition of binding is measured by quantitating the fluorescence or radioactivity bound to the plate for each of the various concentrations of test compound, as well as for controls containing no test compound.
VLA-4-expressing cells that may be utilized in this assay include Ramos cells, Jurkat cells, A375 melanoma cells, as well as human peripheral blood lymophocytes (PBLs). The cells used in this assay may be fluorescently or radioactively labelled.
This assay was used to assess the potency of VLA4-directed inhibitory compounds of this invention. 1.
We dissolved BSA-SMCC (Pierce Chemical, Rockford, Ill.; Catalog #77115) in H2O at a concentration of 10 mg/mL. [SEQ ID NO:4]: […](“Cys-Tyr-CS1 peptide”), which we synthesized by conventional solid phase chemistry and purified by HPLC, was dissolved in 10 mM HEPES pH 5, 50 mM NaCl and 0.1 mM EDTA also at a concentration of 10 mg/mL. We then mixed 500 μL of BSA-SMCC, 250 μL of Cys-Tyr-CS1 peptide and 75 μL of 1 mM HEPES pH 7.5 and allowed the conjugation reaction to proceed for 30 minutes. We stopped the reaction by adding 1 μL of beta-mercaptoethanol. Samples were analyzed for cross-linking by SDS-PAGE.
We coated the wells of a Linbro titertek polystyrene 96-well flat bottom plate (Flow Laboratories, Maclean, Va.; catalog #76-231-05) with 100 μL of the above-described BSA-CS1 solution diluted to 1 μg/mL in 0.05 M NaHCO3 (15 mM NaHCO3, 35 mM Na2CO3) pH 9.2. Some wells were not coated with CS1 in order to assess non-specific cell binding (NSB). The plate was then incubated overnight at 4° C.
Following this incubation, the contents of the wells were removed by inverting and blotting the plate. All of the wells were then blocked with 100 μL of 1% BSA in PBS, 0.02% NaN3, for a minimum of one hour at room temperature.
Ramos cells are grown, maintained and labelled in RPMI 1640 culture medium containing 1% BSA. Just prior to running the assay, we added 2′, 7′-bis-(2-carboxyethyl)-5(and -6)carboxyfluorescein acetoxymethyl ester (“BCECF-AM”; Molecular Probes Inc., Eugene, Oregon; catalog #B-1150) to a final concentration of 2 μM to a culture of Ramos cells (4×10^6 cells/mL). We incubated the cells for 20 minutes at 37° C.
Following labelling, the cells were washed twice in assay buffer (24 mM TRIS, 137 mM NaCl, 2.7 mM KCl, pH 7.4, containing 0.1 BSA and 2mM glucose) to remove any cations originating from the culture medium. The cells were then resuspended in assay buffer to 4×10^6 cells/mL and 2 mM MnCl2 was added to upregulate VLA4 on the surface of the cells.
Immediately prior to running the assay, we removed the BSA blocking solution from the 96-well plates and washed the wells with 100 μL of assay buffer. We then added to each well 25 μL of test cell adhesion inhibitory compound at 2×the final concentration and 25 μL of the labelled Ramos cells. […] Each concentration of compound was tested in triplicate. The compound and cells are allowed to incubate for 30 minutes at room temperature.

Structures are written as SMILES. Numbered stars: 1 amine (or outer) side, 2 acyl side, 3 side chain; on linkers, the order of the positions; unused ones are H or OH. Square brackets hold non-standard residues; d marks the D form. Peptide text beside a SMILES is read from it. * marks the point of attachment. X3 = COc1cc(CC(=O)[*:2])ccc1N[*:1]; CO = O=C([*:1])[*:2]; NHBn = c1ccc(CN*)cc1; NHPh = c1ccc(N*)cc1

T1 sequence (P13612 34-1032): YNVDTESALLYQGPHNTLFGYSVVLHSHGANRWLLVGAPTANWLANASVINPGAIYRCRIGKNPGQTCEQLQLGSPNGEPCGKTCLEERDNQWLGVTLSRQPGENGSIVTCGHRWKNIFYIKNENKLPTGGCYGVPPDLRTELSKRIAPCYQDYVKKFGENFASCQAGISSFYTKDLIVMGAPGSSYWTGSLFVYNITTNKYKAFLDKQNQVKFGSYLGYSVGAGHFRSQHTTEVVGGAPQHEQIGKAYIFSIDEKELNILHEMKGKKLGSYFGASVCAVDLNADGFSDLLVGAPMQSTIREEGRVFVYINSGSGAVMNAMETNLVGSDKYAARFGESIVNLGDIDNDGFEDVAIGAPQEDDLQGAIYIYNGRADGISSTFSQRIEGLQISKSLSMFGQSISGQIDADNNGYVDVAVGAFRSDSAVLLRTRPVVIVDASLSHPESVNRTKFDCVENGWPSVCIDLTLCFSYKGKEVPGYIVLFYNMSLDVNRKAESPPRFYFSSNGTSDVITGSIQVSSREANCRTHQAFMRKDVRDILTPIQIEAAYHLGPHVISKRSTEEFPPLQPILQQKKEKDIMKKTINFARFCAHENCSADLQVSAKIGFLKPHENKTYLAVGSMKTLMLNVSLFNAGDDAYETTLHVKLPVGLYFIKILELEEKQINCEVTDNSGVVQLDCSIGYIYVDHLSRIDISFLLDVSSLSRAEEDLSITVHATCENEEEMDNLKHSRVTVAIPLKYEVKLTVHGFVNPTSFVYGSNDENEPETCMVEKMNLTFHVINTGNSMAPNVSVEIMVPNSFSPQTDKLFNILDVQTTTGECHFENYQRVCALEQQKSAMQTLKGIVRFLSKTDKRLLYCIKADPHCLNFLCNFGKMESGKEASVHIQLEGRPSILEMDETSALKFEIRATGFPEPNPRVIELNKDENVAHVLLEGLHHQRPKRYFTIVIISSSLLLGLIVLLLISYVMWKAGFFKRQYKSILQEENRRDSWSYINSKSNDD
T1 sequence (P05556 21-798): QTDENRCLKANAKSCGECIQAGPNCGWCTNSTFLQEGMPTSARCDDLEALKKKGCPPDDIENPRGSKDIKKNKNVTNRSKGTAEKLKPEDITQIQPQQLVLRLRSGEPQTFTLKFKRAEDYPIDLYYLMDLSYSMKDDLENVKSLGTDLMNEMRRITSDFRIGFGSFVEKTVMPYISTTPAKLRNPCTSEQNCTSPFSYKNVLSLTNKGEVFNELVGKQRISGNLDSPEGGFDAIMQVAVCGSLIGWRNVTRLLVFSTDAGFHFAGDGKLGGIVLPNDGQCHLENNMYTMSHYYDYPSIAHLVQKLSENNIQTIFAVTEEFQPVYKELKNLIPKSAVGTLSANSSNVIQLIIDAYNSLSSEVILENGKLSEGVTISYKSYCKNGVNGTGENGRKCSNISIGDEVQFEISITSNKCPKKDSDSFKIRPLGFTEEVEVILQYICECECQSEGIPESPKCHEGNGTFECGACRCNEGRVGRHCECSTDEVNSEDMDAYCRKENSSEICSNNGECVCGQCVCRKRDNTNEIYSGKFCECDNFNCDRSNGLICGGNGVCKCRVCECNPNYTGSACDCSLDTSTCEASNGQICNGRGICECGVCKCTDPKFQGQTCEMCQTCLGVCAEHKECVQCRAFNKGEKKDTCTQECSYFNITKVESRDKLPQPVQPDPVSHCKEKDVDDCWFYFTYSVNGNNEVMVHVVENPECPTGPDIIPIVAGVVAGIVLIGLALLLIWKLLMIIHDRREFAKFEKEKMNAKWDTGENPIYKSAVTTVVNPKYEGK

For orientation: IC50 means the concentration at which inhibition is half-maximal. With `COc1cc(CC(=O)N[C@@H](CC(C)C)C(=O)N[C@@H](CC(=O)O)C(=O)N[C@H](C(=O)N2CCC[C@H]2C(=O)O)C(C)C)ccc1NC(=O)Nc1ccccc1` [Compound 1] ({NHPh-CO}-[X3]LDVP-OH), the IC50 is less than 0.05 µM.
To `COc1cc(CC(=O)N[C@@H](CCSC)C(=O)N[C@@H](CC(=O)O)C(=O)N[C@H](C(=O)N2CCC[C@H]2C(=O)O)C(C)C)ccc1NC(=O)Nc1ccccc1` [Compound 2] ({NHPh-CO}-[X3]MDVP-OH) belongs less than 0.05 µM; to `COc1nc(CC(=O)N[C@@H](CC(C)C)C(=O)N[C@@H](CC(=O)O)C(=O)N[C@H](C(N)=O)C(C)C)ccc1NC(=O)Nc1ccccc1C` [Compound 3], less than 0.05 µM.
To `CC(C)C[C@H](NC(=O)c1cc2ccccc2cn1)C(=O)N[C@@H](CCC(=O)O)C(=O)N[C@H](C(=O)O)C(C)C` [Compound 5] belongs greater than 10 µM.
To `CC(C)C[C@H](NC(=O)c1cc2ccccc2cn1)C(=O)N[C@@H](CO)C(=O)N[C@H](C(=O)O)C(C)C` [Compound 7] belongs greater than 10 µM.
With `CC(C)C[C@H](NC(=O)c1cc2ccccc2cn1)C(=O)N[C@@H](CS)C(=O)N[C@H](C(=O)O)C(C)C` [Compound 9], the IC50 was greater than 10 µM.
In the case of `CC(C)C[C@H](NC(=O)c1cc2ccccc2cn1)C(=O)N[C@@H](CC(=O)O)C(=O)O` [Compound 12], the IC50 is greater than 10 µM.
To `CC(C)CNC(=O)[C@@H](CC(=O)O)NC(=O)[C@H](CC(C)C)NC(=O)CCc1ccc(O)cc1` [Compound 15] belongs greater than 10 µM; to `CCC(C)C(NC(=O)CCc1ccc(O)cc1)C(=O)NC(CC(=O)O)C(=O)NCC(C)C` (stereo not shown) [Compound 17], greater than 10 µM.
On to `COC(=O)[C@@H](NC(=O)[C@H](CC(=O)O)NC(=O)[C@H](CC(C)C)N(C)C(=O)CCc1ccc(O)cc1)C(C)C` [Compound 18], for which the IC50 was in the range of 0.05 to 10 µM.
As for `COC(=O)[C@@H](NC(=O)[C@H](CC(=O)O)NC(=O)[C@H](CC(C)C)NC(=O)CCc1ccc(O)cc1)C(C)C` [Compound 19], the IC50 is greater than 10 µM.
To `COC(=O)[C@H](C(C)C)N(C)C(=O)[C@H](CC(=O)O)NC(=O)[C@H](CC(C)C)NC(=O)CCc1ccc(O)cc1` [Compound 20] belongs greater than 10 µM; to `COC(=O)[C@@H](NC(=O)[C@H](CC(=O)O)N(C)C(=O)[C@H](CC(C)C)NC(=O)CCc1ccc(O)cc1)C(C)C` [Compound 22], greater than 10 µM.
Regarding `CC(C)C[C@H](NC(=O)C1Cc2ccccc2CN1)C(=O)N[C@@H](CC(=O)O)C(=O)O` (stereo partly shown) [Compound 23] (HELM PEPTIDE1{[O=C(C1Cc2ccccc2CN1)[*:2]].L.D}$$$$V2.0), the IC50 was greater than 10 µM.
On to `COC(=O)[C@@H](NC(=O)[C@H](CC(=O)O)NC(=O)[C@H](CC(C)C)N(Cc1ccccc1)C(C)=O)C(C)C` [Compound 28], for which the IC50 is greater than 10 µM.
For the compound `COC(=O)[C@@H](NC(=O)[C@H](CC(=O)O)NC(=O)[C@H](CC(C)C)N(CCc1ccccc1)C(C)=O)C(C)C` [Compound 29], the IC50 was greater than 10 µM.
Then `COC(=O)[C@@H](NC(=O)[C@H](CC(=O)O)NC(=O)[C@H](CC(C)C)N(CCc1ccccc1)C(=O)CCc1ccccc1)C(C)C` [Compound 30], with greater than 10 µM; and `CC(C)C[C@H](NC(=O)C1Cc2ccccc2CN1)C(=O)N[C@@H](CCC(=O)O)C(=O)N[C@H](C(=O)O)C(C)C` (stereo partly shown) [Compound 31] (HELM PEPTIDE1{[O=C(C1Cc2ccccc2CN1)[*:2]].L.E.V}$$$$V2.0), with greater than 10 µM.
As to `CC(C)C[C@H](NC(=O)c1cc2ccccc2cn1)C(=O)N[C@@H](CC(=O)O)C(=O)N[C@H](C(=O)N1CCC[C@H]1C(=O)O)C(C)C` [Compound 32], the IC50 was greater than 10 µM.
Then `CC(C)C[C@H](NC(=O)Cc1ccccc1)C(=O)N[C@@H](CC(=O)O)C(=O)N[C@H](C(=O)N1CCC[C@H]1C(=O)O)C(C)C` [Compound 34], with 0.05 to 10 µM; and `COC(=O)[C@@H]1CCCN1C(=O)[C@@H](NC(=O)[C@H](CC(=O)O)NC(=O)[C@H](CC(C)C)NC(=O)Cc1ccccc1)C(C)C` [Compound 35], with 0.05 to 10 µM; and `CC(C)C[C@H](NC(=O)CCc1ccccc1)C(=O)N[C@@H](CC(=O)O)C(=O)N[C@H](C(=O)N1CCC[C@H]1C(=O)O)C(C)C` [Compound 36], with greater than 10 µM.
To `COC(=O)[C@@H]1CCCN1C(=O)[C@@H](NC(=O)[C@H](CC(=O)O)NC(=O)[C@H](CC(C)C)NC(=O)CCc1ccccc1)C(C)C` [Compound 37] belongs greater than 10 µM.
Then `CC(C)C[C@H](NC(=O)CCc1ccc(O)cc1)C(=O)N[C@@H](CC(=O)O)C(=O)N[C@H](C(=O)N1CCC[C@H]1C(=O)O)C(C)C` [Compound 38], with greater than 10 µM.
As for `COC(=O)[C@@H]1CCCN1C(=O)[C@@H](NC(=O)[C@H](CC(=O)O)NC(=O)[C@H](CC(C)C)NC(=O)OC(C)(C)C)C(C)C` [Compound 40], the IC50 is greater than 10 µM.
Then `COC(=O)[C@@H]1CCCN1C(=O)[C@@H](NC(=O)[C@H](CC(=O)O)NC(=O)[C@H](CC(C)C)NC(=O)c1ccc2ccccc2n1)C(C)C` [Compound 41], with 0.05 to 10 µM; and `CC(C)CC(NC(=O)Cc1ccccc1)C(=O)NC(CC(=O)O)C(=O)NC(C(=O)N1CCCCC1C(=O)O)C(C)C` (stereo not shown) [Compound 42], with 0.05 to 10 µM.
In the case of `CNC(=O)[C@@H](NC(=O)[C@H](CC(=O)O)NC(=O)[C@H](CC(C)C)N(C)C(=O)Cc1ccc(OC)cc1)C(C)C` [Compound 45], the IC50 was greater than 10 µM.
Take `CNC(=O)[C@@H](NC(=O)[C@H](CC(=O)O)NC(=O)[C@H](CC(C)C)N(C)C(=O)CCc1ccc(O)cc1)C(C)C` [Compound 46]: the IC50 is greater than 10 µM.
To `CNC(=O)[C@@H](NC(=O)[C@H](CC(=O)O)NC(=O)[C@H](CC(C)C)NC(=O)NCc1ccccc1)C(C)C` [Compound 47] ({NHBn-CO}-Leu-Asp-Val-NHMe) belongs greater than 10 µM; to `CNC(=O)[C@@H](NC(=O)[C@H](CC(=O)O)NC(=O)[C@H](CC(C)C)NC(=O)Nc1ccc(C)cc1)C(C)C` [Compound 48], greater than 10 µM.
On to `CNC(=O)[C@@H](NC(=O)[C@H](CC(=O)O)NC(=O)[C@H](CC(C)C)NC(=O)c1ccc2ccccc2n1)[C@@H](C)OC` [Compound 59], for which the IC50 fell in the range of 0.05 to 10 µM.
To `CC(C)C[C@H](NC(=O)c1ccc2ccccc2n1)C(=O)N[C@@H](CC(=O)O)C(=O)N[C@H](C(=O)NC(C)(C)C)[C@@H](C)O` [Compound 60] belongs greater than 10 µM.
Then `CC(C)C[C@H](NC(=O)c1ccc2ccccc2n1)C(=O)N[C@@H](CC(=O)O)C(=O)N[C@H](C(=O)N1CCOCC1)[C@@H](C)O` [Compound 61], with 0.05 to 10 µM.
Then `CC(C)C[C@H](NC(=O)OC(C)(C)C)C(=O)N[C@@H](CC(=O)O)C(=O)N[C@H](C(=O)NC(C)(C)C)[C@@H](C)O` [Compound 62] (HELM PEPTIDE1{[CC(C)(C)OC(=O)[*:2]].L.D.T.[CC(C)(C)N[*:1]]}$$$$V2.0), with greater than 10 µM; and `CC(C)C[C@H](NC(=O)C1(NC(=O)OC(C)(C)C)CCc2ccccc2C1)C(=O)N[C@@H](CC(=O)O)C(=O)N[C@H](C(=O)O)C(C)C` (stereo partly shown) [Compound 63] (HELM PEPTIDE1{[CC(C)(C)OC(=O)[*:2]].[O=C(C1(N[*:1])CCc2ccccc2C1)[*:2]].L.D.V}$$$$V2.0), with greater than 10 µM.
With `CC(C)C[C@H](NC(=O)CCc1ccccc1)C(=O)N[C@@H](CC(=O)O)C(=O)N[C@H](C(=O)O)C(C)C` [Compound 64] (HELM PEPTIDE1{[O=C(CCc1ccccc1)[*:2]].L.D.V}$$$$V2.0), the IC50 was greater than 10 µM.
